The values below come from patent publication US8372967B2, “Compounds and methods for modulating expression of GCCR” (Isis Pharmaceuticals, Inc., priority 2006, dated 2013).

Strand notation (5' to 3'): a small letter for the sugar, then the base; units joined by * are phosphorothioate-linked, units joined directly phosphodiester-linked; [ ] holds rarer units or linkages, { } end groups; capitals alone tell only the bases. e = 2'-O-(2-methoxyethyl) (MOE); l = locked nucleic acid (LNA); [5mC] = 5-methylcytosine; d = 2'-deoxy (DNA)

The test system of one data set is rat DGAT2 mRNA. Kind of data set: Dose-dependent inhibition of DGAT2 in A10 cells (Tables 82, 83). The data set is classed as cell-based. A digest of the protocol: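 Rat A10 cells treated with short antisense compounds at 6.25–200.0 nM (one set) or 0.62–150.0 nM (another set). DGAT2 mRNA quantified by real-time qPCR. Values are percent inhibition of rat DGAT2 relative to untreated control cells.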

Another data set has as its system DGAT2 mRNA. Kind of data set: Antisense inhibition of DGAT2 in A10 cells, 75 nM (Table 81). The data set is classed as cell-based, rat. The following applies: approximately 24 hours. As to the method:
Short antisense compounds targeted to a DGAT2 nucleic acid were tested for their effects on DGAT2 mRNA in vitro. Cultured A10 cells in a 96-well plate were treated with 75 nM of short antisense compound. After a treatment period of approximately 24 hours, RNA was isolated from the cells and DGAT2 mRNA levels were measured by quantitative real-time PCR, as described herein. DGAT2 mRNA levels were adjusted according to total RNA content as measured by RIBOGREEN®. Results are presented as percent inhibition of DGAT2, relative to untreated control cells in Table 81.

The nature of data set [1]: HbA1c status in ZDF rat (Table 72). The data set is classed as in vivo. Conditions: ZDF rat, 400 nM/kg i.p. once a week. As to the method:
ISIS 388625, 388626 and control oligo ISIS 388628 were analyzed for their effect on ZDF rat plasma glucose levels and HbA1c. The leptin receptor deficient Zucker diabetic fatty (ZDF) rat is a useful model for the investigation of type 2 diabetes. Diabetes develops spontaneously in these male rats at ages 8-10 weeks, and is associated with hyperphagia, polyuria, polydipsia, and impaired weight gain, symptoms which parallel the clinical symptoms of diabetes (Phillips M S, et al., 1996, Nat Genet. 13, 18-19). Six week old ZDF rats were injected intraperitoneally with short antisense compound at a dose of 400 nM/kg once a week for twelve weeks. Data are illustrated in Tables 71 and 72.

In another data set the test system is GCGR mRNA. Kind of data set: GCGR mRNA levels in liver and estimated ED50, C57/BL6 mice, single i.p. dose of MOE and methyleneoxy BNA gapmers (Tables 44, 45). The data set is classed as in vivo, mouse. The following applies: liver. As to the method: Eight-week old male C57/BL6 mice (Jackson Laboratory, Bar Harbor, Me.) were administered a single dose of GCGR antisense compound by intraperitonel (i.p.) injection at a concentration of 10, 3.2, 1, and 0.32 μmol·kg. Each dose group consisted of four animals. Shown in Table 43 are the sequences, motifs and conjugates of the GCGR antisense compounds used in this study. Bolded residues indicate 2′-O-methoxyethyl (2′-MOE) modifications and the italicized residues indicate methyleneoxy (4′-CH2—O-2′) BNA modifications. All antisense compounds comprise phosphorothioate internucleoside linkages throughout and each cytosine is replaced with 5-methylcytosine. GCGR antisense compounds target published GCGR nucleic acids, including Genbank Accession No. BC031885.1 (SEQ ID NO: 7).
To determine whether the phenotypic changes shown above correlated with a decrease in GCGR mRNA, treated animals were evaluated for levels of target mRNA in liver by RT, real time PCR according to methods described herein. Table 44 show results from direct comparisons of the antisense compounds targeting GCGR nucleic acid for their effect on target expression. Results are expressed as percent of saline control.

Another data set has as its system rat SGLT2 mRNA. Kind of data set: Rat SGLT2 mRNA in kidney, 1-10-1 and 1-10-2 MOE gapmers, Sprague-Dawley rats (Table 63). The data set is classed as in vivo. The source says: 1-10-1 and 1-10-2 MOE gapmer antisense compounds, provided in Table 62, were designed to target different regions of the mouse or rat SGLT2 RNA. All short antisense compounds in Table 62 are chimeric oligonucleotides (“gapmers”) either 12 or 13 nucleotides in length, composed of a central “gap” segment consisting of ten 2′-deoxynucleotides, which are flanked on the 5′ side by a one-nucleoside “wing” and on the 3′ side by a two or one-nucleotide “wing”. […] All cytidine residues are 5-methylcytidines.
The short antisense compounds were analyzed for their effect on rat SGLT2 mRNA levels. Data are ranges taken from three experiments in which Male Sprague-Dawley rats (170-200 g) were dosed twice per week for three weeks with 450, 150 or 50 nmol/kg of either a 1-10-1 or 1-10-2 MOE gapmer given by intraperitoneal injection. Rats were sacrificed 48 hours following last administration and evaluated for SGLT2 mRNA levels in kidney. Target levels were determined by RT, real-time PCR as described by other examples herein. PCR results were normalized to an internal ISIS control.

The test system of a further data set is mouse SGLT2 mRNA. Kind of data set: Mouse SGLT2 mRNA in kidney, MOE versus Methyleneoxy BNA gapmers (Table 69). The data set is classed as in vivo. Conditions: Balb/c mouse kidney. As to the method:
The effect of ISIS 3796921-10-1 MOE gapmer and ISIS 3886252-8-2 MOE gapmer are compared with the effect of ISIS 3921701-10-1 Methyleneoxy BNA Gapmer and ISIS 3921732-8-2 Methyleneoxy BNA Gapmer (see Table 69) on mouse SGLT2 mRNA levels in vivo. Data are taken from three experiments in which male 6-week old Balb/c mice were dosed twice per week for three weeks with 5, 25 and 125 nmol/kg of either the ISIS 3796921-10-1 MOE gapmer or the ISIS 3886252-8-2 MOE gapmer given by intraperitoneal injection. Mice were sacrificed 48 hours following last administration and evaluated for SGLT2 mRNA levels in kidney. Target levels were determined by RT, real-time PCR as described by other examples herein. PCR results were normalized to an internal ISIS control. The data are expressed as percent change (“+” indicates an increase, “−” indicates a decrease) relative to saline treated animals and are illustrated in Table 69.

[2] abbreviates: 5 nmol/kg i.p. twice per week for three weeks.
[3] abbreviates: 25 nmol/kg i.p. twice per week for three weeks.
[4] abbreviates: 125 nmol/kg i.p. twice per week for three weeks.

For “372586 (antisense eG*eT*dT*d[5mC]*d[5mC]*dT*dG*dG*dT*dG*dG*dT*e[5mC]*eA) [compound 372586]”, the “percent inhibition of rat DGAT2” value was determined as 0% in the data set on rat DGAT2 mRNA (0.62 nM (Table 83)); 0% in the data set on rat DGAT2 mRNA (1.85 nM (Table 83)); 0% in the data set with rat DGAT2 mRNA (5.56 nM (Table 83)); 0% in the data set on rat DGAT2 mRNA (16.67 nM (Table 83)); 7% in the data set on rat DGAT2 mRNA (50 nM (Table 83)); 55% in the data set on rat DGAT2 mRNA (150 nM (Table 83)). Besides, the “percent inhibition of DGAT2” value was 19% in the data set with rat DGAT2 mRNA (6.25 nM (Table 82)); 0% in the data set on rat DGAT2 mRNA (12.5 nM (Table 82)); 22% in the data set with rat DGAT2 mRNA (50.0 nM (Table 82)); 45% in the data set on rat DGAT2 mRNA (100.0 nM (Table 82)); 77% in the data set on rat DGAT2 mRNA (200.0 nM (Table 82)). The “% Control” value in the data set on DGAT2 mRNA was determined as 40 % Control.

With “372594 (antisense eA*e[5mC]*dA*dG*dA*dA*dG*dG*d[5mC]*dA*d[5mC]*d[5mC]*e[5mC]*eA) [compound 372594]”, the “percent inhibition of rat DGAT2” value is reported as 0% in the data set with rat DGAT2 mRNA (0.62 nM (Table 83)); 0% in the data set on rat DGAT2 mRNA (1.85 nM (Table 83)); 0% in the data set on rat DGAT2 mRNA (5.56 nM (Table 83)); 0% with rat DGAT2 mRNA (16.67 nM (Table 83)); 2% in the data set with rat DGAT2 mRNA (50 nM (Table 83)); 15% with rat DGAT2 mRNA (150 nM (Table 83)). Besides, in the data set with DGAT2 mRNA, the “% Control” value was 77 % Control.

Consider “372602 (antisense e[5mC]*e[5mC]*dA*dG*dG*d[5mC]*dA*dT*dG*dG*dA*dG*e[5mC]*eT) [compound 372602]”, for which the “percent inhibition of rat DGAT2” value in the data set on rat DGAT2 mRNA (0.62 nM (Table 83)) is reported as 0%; with rat DGAT2 mRNA (1.85 nM (Table 83)), 0%; in the data set with rat DGAT2 mRNA (5.56 nM (Table 83)), 10%; in the data set with rat DGAT2 mRNA (16.67 nM (Table 83)) it was 0%; with rat DGAT2 mRNA (50 nM (Table 83)), 19%; in the data set with rat DGAT2 mRNA (150 nM (Table 83)), 51%. Moreover, the “percent inhibition of DGAT2” value was 0% in the data set on rat DGAT2 mRNA (6.25 nM (Table 82)); 0% with rat DGAT2 mRNA (12.5 nM (Table 82)); 18% in the data set on rat DGAT2 mRNA (50.0 nM (Table 82)); 47% in the data set with rat DGAT2 mRNA (100.0 nM (Table 82)); 76% with rat DGAT2 mRNA (200.0 nM (Table 82)). Also, in the data set on DGAT2 mRNA, the “% Control” value came out at 39 % Control.

On to “372618 (antisense eG*eT*dG*dG*dT*dA*d[5mC]*dA*dG*dG*dT*d[5mC]*eG*eA) [compound 372618]”, for which the “percent inhibition of rat DGAT2” value with rat DGAT2 mRNA (0.62 nM (Table 83)) was found to be 0%; in the data set with rat DGAT2 mRNA (1.85 nM (Table 83)), 0%; with rat DGAT2 mRNA (5.56 nM (Table 83)) it was 0%; in the data set with rat DGAT2 mRNA (16.67 nM (Table 83)), 0%; with rat DGAT2 mRNA (50 nM (Table 83)) it was 30%; in the data set with rat DGAT2 mRNA (150 nM (Table 83)), 60%. Further, the “percent inhibition of DGAT2” value with rat DGAT2 mRNA (6.25 nM (Table 82)) was determined as 0%; in the data set on rat DGAT2 mRNA (12.5 nM (Table 82)), 5%; in the data set with rat DGAT2 mRNA (50.0 nM (Table 82)), 27%; in the data set with rat DGAT2 mRNA (100.0 nM (Table 82)), 65%; in the data set on rat DGAT2 mRNA (200.0 nM (Table 82)), 80%. For the same substance, the “% Control” value in the data set with DGAT2 mRNA was determined as 29 % Control.

As to “372624 (antisense eT*eG*dG*dT*d[5mC]*dT*dT*dG*dT*dG*dA*dT*eT*eG) [compound 372624]”, the “percent inhibition of rat DGAT2” value in the data set with rat DGAT2 mRNA (0.62 nM (Table 83)) is 0%; in the data set on rat DGAT2 mRNA (1.85 nM (Table 83)), 0%; in the data set with rat DGAT2 mRNA (5.56 nM (Table 83)) it was 0%; in the data set with rat DGAT2 mRNA (16.67 nM (Table 83)) it was 1%; with rat DGAT2 mRNA (50 nM (Table 83)) it was 16%; in the data set with rat DGAT2 mRNA (150 nM (Table 83)), 38%. In addition, the “% Control” value in the data set with DGAT2 mRNA was found to be 56 % Control.

As for “388625 (eT*eG*dT*dT*d[5mC]*d[5mC]*dA*dG*d[5mC]*d[5mC]*e[5mC]*eA) [compound 388625]”, the “Percentage HbA1c” value in data set [1] (Day 40) is recorded as 6.5%; in data set [1] (Day 55), 5.8%; in data set [1] (Day 68), 4.3%.

In the case of “388628 (eT*eA*dG*d[5mC]*d[5mC]*dG*d[5mC]*d[5mC]*d[5mC]*dA*e[5mC]*eA) [compound 388628]”, the “Percentage HbA1c” value in data set [1] (Day 40) turned out to be 8.0%; in data set [1] (Day 55), 9.1%; in data set [1] (Day 68), 7.8%.

Regarding “396145 (ATGGCTTCTCCATCATATCC; 5-10-5 MOE gapmer, chemistry not fully specified) [compound 396145]”, the “GCGR mRNA levels” value in the data set with GCGR mRNA (3.2 μmol/kg single i.p.) was 33% of saline control; in the data set with GCGR mRNA (10 μmol/kg single i.p.), 8% of saline control.

Turning to “396147 (CTTGGGCATGCTCGTCAGTC; 5-10-5 MOE gapmer, chemistry not fully specified) [compound 396147]”, the “GCGR mRNA levels” value was 68% of saline control with GCGR mRNA (3.2 μmol/kg single i.p.) and 28% of saline control with GCGR mRNA (10 μmol/kg single i.p.).

Take “ISIS 382675 (eT*dA*dG*d[5mC]*d[5mC]*dA*d[5mC]*d[5mC]*dA*dA*d[5mC]*eT*eG)”: the “% change in SGLT2 expression relative to saline” value in the data set on rat SGLT2 mRNA (50 nmol/kg i.p. twice per week for three weeks) is −50%; in the data set on rat SGLT2 mRNA (150 nmol/kg i.p. twice per week for three weeks), −65%; in the data set with rat SGLT2 mRNA (450 nmol/kg i.p. twice per week for three weeks) it was −80%.

Take “ISIS 392170: 1-10-1 Methyleneoxy BNA Gapmer, SGLT2 (lT*dG*dT*dT*d[5mC]*d[5mC]*dA*dG*d[5mC]*d[5mC]*d[5mC]*lA)”: the entries for the “SGLT2 mRNA, percent change relative to saline treated animals” value with mouse SGLT2 mRNA (setting [2]), in the data set on mouse SGLT2 mRNA (setting [3]) and in the data set on mouse SGLT2 mRNA (setting [4]) were −23%, −54% and −69%, respectively.

As for “ISIS 392173: 2-8-2 Methyleneoxy BNA Gapmer, SGLT2 (lT*lG*dT*dT*d[5mC]*d[5mC]*dA*dG*d[5mC]*d[5mC]*l[5mC]*lA)”, the “SGLT2 mRNA, percent change relative to saline treated animals” value in the data set on mouse SGLT2 mRNA (setting [2]) is reported as −44%; with mouse SGLT2 mRNA (setting [3]), −57%; in the data set with mouse SGLT2 mRNA (setting [4]) it was −75%.
